Assay results from ChEMBL document CHEMBL3232922, “Discovery and SAR of 6-alkyl-2,4-diaminopyrimidines as histamine H₄ receptor antagonists” (J Med Chem, 2014).

Assays:
Histamine H4 receptor [1] = molecular target: T1, Histamine H4 receptor (Homo sapiens, UniProt Q9H3N8); assay: Displacement of [3H]histamine from human recombinant histamine H4 receptor expressed in SK-N-MC cells after 45 mins by competition binding analysis; type: cell-based
Histamine H4 receptor [2] = molecular target: T1, Histamine H4 receptor; assay: Agonist activity at human H4 receptor; conditions: read-out: EC50
Histamine H4 receptor [3] = molecular target: T1, Histamine H4 receptor; assay: Antagonist activity at human histamine H4 receptor expressed in SK-N-MC cells assessed as reduction of histamine-induced inhibition of cAMP-mediated beta-galactosidase reporter gene activity treated 10 mins prior to histamine challenge by microplate reader analysis; type: functional, cell-based; conditions: read-out: pA2 (converted)

T1 sequence (Q9H3N8 whole entry): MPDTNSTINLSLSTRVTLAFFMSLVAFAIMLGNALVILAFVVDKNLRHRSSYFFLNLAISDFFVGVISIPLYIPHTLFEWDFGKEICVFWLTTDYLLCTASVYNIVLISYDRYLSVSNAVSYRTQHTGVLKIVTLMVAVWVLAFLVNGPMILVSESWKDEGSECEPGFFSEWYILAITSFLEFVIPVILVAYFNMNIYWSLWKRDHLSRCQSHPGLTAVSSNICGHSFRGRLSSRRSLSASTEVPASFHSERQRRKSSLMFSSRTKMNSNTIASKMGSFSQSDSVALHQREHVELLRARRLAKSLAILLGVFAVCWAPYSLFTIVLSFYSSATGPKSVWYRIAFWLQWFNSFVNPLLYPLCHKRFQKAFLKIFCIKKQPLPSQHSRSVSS

SMILES | Ki (Histamine H4 receptor [1]) | EC50 (Histamine H4 receptor [2]) | Kb (Histamine H4 receptor [3])
Nc1nc(C2CCCC2)cc(N2C[C@@H]3NCCO[C@@H]3C2)n1 (relative stereo) | 0.52 µM | – | –
CN1CCN(C(=O)c2nc3cc(Cl)ccc3[nH]2)CC1 | 0.02 µM | – | –
Nc1nc(C2CCCC2)cc(N2C[C@H]3CCN[C@H]3C2)n1 | 0.0029 µM | > 10 µM | 0.0001 µM
CN1CCN(C(=O)c2cc3c([nH]2)CCCC3)CC1 | 0.02 µM | – | –
Nc1nc(C2CCCC2)cc(N2C[C@H]3CNC[C@H]3C2)n1 | 0.328 µM | – | –
CN[C@@H]1CCN(c2cc(C(F)(F)F)nc(N)n2)C1 | > 10 µM | – | –
Nc1nc(C2CCCC2)cc(N2CCC3(CCCN3)C2)n1 (centres undefined) | 0.0112 µM | > 10 µM | 0.00251 µM
CN[C@H]1CN(c2cc(C3CCCC3)nc(N)n2)C[C@@H]1O (relative stereo) | 0.03 µM | > 10 µM | 0.01 µM
